From article PMC7203735, “Characterization of an A-Type Muscarinic Acetylcholine Receptor and Its Possible Non-neuronal Role in the Oriental Armyworm, Mythimna separata Walker (Lepidoptera: Noctuidae)” (Frontiers in Physiology, 2020)
Like-named read-outs stand apart in the source and are kept apart here.

Target: T1, Ms A-type mAChR (Ms A-mAChR) (Mythimna separata, UniProt A0A2D1QUJ3)
T1 sequence (A0A2D1QUJ3 1-601): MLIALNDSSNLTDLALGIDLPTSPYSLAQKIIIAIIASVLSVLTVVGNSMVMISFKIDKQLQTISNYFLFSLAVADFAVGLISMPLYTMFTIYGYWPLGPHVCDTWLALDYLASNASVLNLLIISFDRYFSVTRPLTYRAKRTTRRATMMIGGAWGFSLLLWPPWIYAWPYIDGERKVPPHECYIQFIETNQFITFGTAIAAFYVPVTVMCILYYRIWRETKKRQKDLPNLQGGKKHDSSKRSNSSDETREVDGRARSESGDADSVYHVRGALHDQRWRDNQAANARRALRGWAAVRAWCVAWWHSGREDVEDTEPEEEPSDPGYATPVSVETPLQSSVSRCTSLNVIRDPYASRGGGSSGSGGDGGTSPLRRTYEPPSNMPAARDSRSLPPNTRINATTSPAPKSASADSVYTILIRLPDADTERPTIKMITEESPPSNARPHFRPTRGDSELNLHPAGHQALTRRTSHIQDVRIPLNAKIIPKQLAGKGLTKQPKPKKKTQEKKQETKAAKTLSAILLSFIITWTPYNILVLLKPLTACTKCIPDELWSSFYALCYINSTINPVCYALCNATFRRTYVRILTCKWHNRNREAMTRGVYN
Experiment: FLIPR calcium mobilization in transfected HEK […] cells
Format: cell-based

Row | EC50 (read-out: EC50) [nM] | Compound | EC50 [nM]
1 | 125 | C[N+](C)(C)CCOC(N)=O [carbachol] | –
2 | – | C[C@@H]1O[C@H](C[N+](C)(C)C)C[C@H]1O [muscarine] | 388
